Patent publication US6924311B2, “Methods for affecting various diseases utilizing LXR compounds” (X-Ceptor Therapeutics, Inc., priority 2001, dated 2005)

Experiments:
CYP7a mRNA = assay: Liver CYP7a mRNA by quantitative PCR in treated mice; format: in vivo; conditions: for CYP7a mRNA induction: daily oral 7 days
Description: The CYP7a gene encodes cholesterol 7α-hydroxylase, the rate-limiting enzyme in the catabolic conversion of cholesterol to bile acids. Increases in CYP7a activity stimulate the conversion of cholesterol to bile acids and may reduce plasma cholesterol levels by depleting hepatocytes of cholesterol. Intracellular cholesterol depletion should stimulate the uptake of LDL particles from the plasma by liver hepatocytes. To determine the contribution of LXRα and LXRβ to the induction of CYP7a by LXR agonists, Compound 1 was administered for seven days by daily oral gavage in a sesame oil/ethanol vehicle via a 1-cc syringe fitted with a 20G disposable feeding needle. Compound was solvated in ethanol (5% final volume) and brought up to final volume with sesame oil (Sigma, St. Louis, Mo.). Three hours after the final dose (day 7) animals were sacrificed, livers were harvested, and total liver RNA was isolated using RNeasy kits (QIAGEN Inc.) according to the supplier's total RNA isolation procedure. The RNA samples were further treated with deoxyribonuclease 1 to eliminate contaminating genomic DNA. CYP7a mRNA levels were than analyzed by real-time based quantitative PCR using Perkin Elmer ABI Prism 7700 and Sequence Detection System software (Perkin Elmer). […] As expected no induction is observed in LXRαβ−/− mice.

ABCG1 mRNA = ABCG1 mRNA induction in cultured peritoneal macrophages; format: cell-based, mice; conditions: 24 hours
Description: The individual contributions of both receptors to macrophage gene expression were examined by first measuring the amount of mRNA encoding LXRα and LXRβ in thioglycolate-elicited peritoneal macrophages obtained from mixed wildtype mice. Thioglycolate-elicited peritoneal macrophages were isolated from mice 4 days after peritoneal injection of thioglycolate media. Peritoneal macrophages were harvested by lavage of the peritoneum with phosphate buffered saline (PBS), cells were washed, transferred to 60 mm culture plates and incubated at 37° C. in RPMI 1640 media (Life Technologies) containing 10% FBS, 2 mmol/L glutamine, 100 μg/mL streptomycin and 100 IU penicillin (Life Technologies). After 5 hours at 37° C., cells were washed 5 times with PBS to remove non-adherent cells and adherent cells were further incubated in RPMI 1640 media supplemented with 10% FBS for 24 hours. To determine the mRNA levels of LXRα and LXRβ, after 24 hours total RNA was isolated from cultured macrophages using RNeasy kits (QIAGEN Inc.) according to the supplier's total RNA isolation procedure. The RNA samples were further treated with deoxyribonuclease I to eliminate contaminating genomic DNA. LXRα and LXRβ mRNA levels were than analyzed by real-time based quantitative PCR using Perkin Elmer ABI Prism 7700 and Sequence Detection System software (Perkin Elmer). […] To further examine LXR-dependent gene expression in macrophages, peritoneal macrophages were isolated as described above from mixed wildtype, LXRα−/− (C57BL/6), LXRβ−/−, and LXRαβ−/− mice. After removal of non-adherent cells, the remaining macrophages were than cultured in either the absence or presence of LXR pan-agonist (1.0 μM Compound 1) for 24 hours. At the end of the experiment total RNA was isolated from cultured macrophages using RNeasy kits (QIAGEN Inc.) according to the supplier's total RNA isolation procedure. RNA samples were further treated with deoxyribonuclease I to eliminate contaminating genomic DNA before use. The LXR agonist-dependent induction of the ABCA1 and ABCG1 mRNAs were than analyzed by real-time based quantitative PCR using Perkin Elmer ABI Prism 7700 and Sequence Detection System software (Perkin Elmer). ABCA1 and ABCG1 function as efflux pumps that mediate the transfer of intracellular cholesterol out of cells to HDL particles, a process referred to as reverse cholesterol transport. […] Elimination of LXRα activity (LXRα−/−) has no effect on the agonist-dependent response. In contrast, elimination of LXRβ activity (LXRβ−/−) reduces the agonist-dependent induction of ABCA1 by 82% and the ABCG1 induction by 50%. […] Thus LXRβ alone is sufficient to allow the maximum induction of ABCA1 and ABCG1 in peritoneal macrophages.

LXRα = biological target: T1, LXRα (Homo sapiens, UniProt Q13133); conditions: stated as considered, no test described; cited from earlier work
T1 sequence (Q13133 1-447): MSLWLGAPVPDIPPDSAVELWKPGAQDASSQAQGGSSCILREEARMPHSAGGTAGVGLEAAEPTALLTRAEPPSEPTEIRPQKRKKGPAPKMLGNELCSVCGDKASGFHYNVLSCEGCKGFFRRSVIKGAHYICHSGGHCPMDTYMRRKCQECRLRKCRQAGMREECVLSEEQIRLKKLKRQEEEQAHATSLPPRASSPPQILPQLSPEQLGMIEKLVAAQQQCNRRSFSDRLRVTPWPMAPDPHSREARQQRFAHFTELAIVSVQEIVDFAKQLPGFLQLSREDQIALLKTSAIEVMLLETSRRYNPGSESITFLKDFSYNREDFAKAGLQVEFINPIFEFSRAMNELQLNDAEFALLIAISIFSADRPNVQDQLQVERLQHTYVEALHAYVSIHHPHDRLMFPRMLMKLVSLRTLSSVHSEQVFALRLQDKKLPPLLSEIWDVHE

## O=S(=O)(c1ccccc1)N(CC(F)(F)F)c1ccc(C(O)(C(F)(F)F)C(F)(F)F)cc1 [Compound 1, N-(2,2,2-trifluoroethyl)-N-[4-(2,2,2-trifluoro-1-hydroxy-1-trifluoromethylethyl)-phenyl]-benzene sulfonamide]
CYP7a mRNA; LXRαβ−/− mice
  CYP7a mRNA induction: no induction
CYP7a mRNA; LXRα−/− mice
  CYP7a mRNA induction: can induce transcription of the CYP7a gene
CYP7a mRNA; LXRβ alone (LXRα−/− mice)
  CYP7a induction level relative to wildtype agonist-treated mice: 20%-50%
CYP7a mRNA; LXRβ−/− mice
  CYP7a mRNA induction: can induce transcription of the CYP7a gene
CYP7a mRNA; wildtype mice
  CYP7a mRNA induction: can induce transcription of the CYP7a gene
ABCG1 mRNA; LXRαβ−/− macrophages, 1.0 μM
  agonist-dependent ABCG1 mRNA induction: completely blocks the response
ABCG1 mRNA; LXRα−/− macrophages, 1.0 μM
  agonist-dependent ABCG1 mRNA induction: no effect
ABCG1 mRNA; LXRβ−/− macrophages versus wildtype, 1.0 μM
  reduction of agonist-dependent induction of ABCG1: 50%
ABCG1 mRNA; Mus musculus, Macrophage, wildtype macrophages
  fold induction at 1 µM: 8
LXRα
  binding and activation of LXRα: binds and activates both LXRα and LXRβ with similar potency and efficacy
